Data on seven molecules can be found in ChEMBL document CHEMBL1201862, “PubChem BioAssay data set” (2004).

Some test systems named below: Malme-3M; SNB-19; SF-295; EKVX; BT-549; NCI-H226; ACHN; M14; HT-29; MCF7; OVCAR-4; HCT-15; OVCAR-5; HOP-92; RXF 393; SF-268; UO-31; IGROV-1; KM12; UACC-62.
Common to all, as to experiment: inhibition of tumour cell growth, NCI panel, 48 h

Each structure is given as a SMILES string.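 Values below derive from 48-hour exposures of cells grown in 96-well plates, with endpoints linearly interpolated between the two concentrations bracketing the appropriate inhibition level. The concentration for 50% growth inhibition is given as GI50.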 Active and inactive are the calls of the source. Cut-off read from the data, not from the text of the source: active = GI50 up to about 1.1 µM and inactive = higher. A value given as a limit tells only on which side of the number the result lay.

On to `COc1cc(OC)cc(OCc2nc3cc(C(F)(F)F)ccc3nc2-c2ccccc2)c1`, for which the GI50 in the assay with Malme-3M was > 100 µM (inactive); in the assay on SNB-19, > 100 µM (inactive); in the assay with SF-295, > 100 µM (inactive); in the assay with EKVX, 22.2 µM (inactive); with BT-549, > 100 µM (inactive); in the assay with NCI-H226, 90.8 µM (inactive). For the same molecule, the GI50 is > 100 µM (inactive) with ACHN; > 100 µM (inactive) in the assay with M14; 29.4 µM (inactive) in the assay with HT-29; > 100 µM (inactive) in the assay with MCF7; > 100 µM (inactive) with OVCAR-4; above 100 µM with HCT-15. The GI50 with OVCAR-5 is > 100 µM (inactive); in the assay on HOP-92, > 100 µM (inactive); in the assay on RXF 393, > 100 µM (inactive); with SF-268, > 100 µM (inactive); with UO-31, > 100 µM (inactive); in the assay with IGROV-1, 0.809 µM (active). The GI50 with KM12 and in the assay with UACC-62 was > 100 µM (inactive) in each case.

As for `CCCCSC1=N/C(=C\c2ccc(N(C)C)cc2)C(Cl)=N1`, the GI50 in the assay with Malme-3M was > 100 µM (inactive); with SNB-19, > 100 µM (inactive); with SF-295, > 100 µM (inactive); in the assay on EKVX, 89.5 µM (inactive); with BT-549, > 100 µM (inactive); with NCI-H226 it was > 100 µM (inactive). Further, the GI50 in the assay on ACHN is > 100 µM (inactive); in the assay with M14, > 100 µM (inactive); with HT-29, > 100 µM (inactive); in the assay on MCF7, > 100 µM (inactive); in the assay on OVCAR-4, > 100 µM (inactive); in the assay on HCT-15 it was above 100 µM. Moreover, the GI50 in the assay with OVCAR-5, with HOP-92, in the assay with RXF 393, in the assay with SF-268, in the assay on UO-31 and with IGROV-1 was > 100 µM (inactive) each time. Further, the GI50 is > 100 µM (inactive) in the assay on KM12 and 94.4 µM (inactive) in the assay with UACC-62.

Turning to `N=C1OC(c2cccc(Cl)c2)C(NNS(=O)(=O)c2ccccc2)=C1O` (stereo not given), the GI50 is 22.4 µM (inactive) in the assay on Malme-3M; 55.5 µM (inactive) in the assay with SNB-19; 57 µM (inactive) in the assay on SF-295; 68.4 µM (inactive) with EKVX; 37 µM (inactive) with BT-549; 43.9 µM (inactive) in the assay on NCI-H226. Besides, the GI50 in the assay on ACHN was 31.6 µM (inactive); in the assay on M14, 22.4 µM (inactive); with HT-29 it was 19.9 µM (inactive); in the assay on MCF7, 22.4 µM (inactive); with OVCAR-4 it was 52.5 µM (inactive); in the assay with HCT-15 it was 12.2 µM. Besides, the GI50 was 31.9 µM (inactive) with OVCAR-5; 23.6 µM (inactive) in the assay on HOP-92; 15.7 µM (inactive) in the assay on RXF 393; 39.7 µM (inactive) with SF-268; 26.6 µM (inactive) in the assay on UO-31; 70.5 µM (inactive) in the assay on IGROV-1. Besides, the GI50 in the assay with KM12 is 47.8 µM (inactive); with UACC-62, 24.9 µM (inactive).

On to `COC(=O)c1ccccc1C1CN=NC12Cc1ccccc1C2=O` (stereo not given), for which the GI50 in the assay with Malme-3M is 74.5 µM (inactive); in the assay on SNB-19, > 100 µM (inactive); in the assay on SF-295, > 100 µM (inactive); with EKVX it was 42.5 µM (inactive); with BT-549 it was 49.2 µM (inactive); with NCI-H226, > 100 µM (inactive). The GI50 in the assay on ACHN is > 100 µM (inactive); in the assay on M14 it was 68.1 µM (inactive); with HT-29, > 100 µM (inactive); with MCF7 it was > 100 µM (inactive); in the assay with OVCAR-4, 52.4 µM (inactive); in the assay with HCT-15 it was above 100 µM. The GI50 is > 100 µM (inactive) in the assay with OVCAR-5; 34 µM (inactive) in the assay on HOP-92; > 100 µM (inactive) in the assay on RXF 393; > 100 µM (inactive) in the assay with SF-268; 34.2 µM (inactive) with UO-31; > 100 µM (inactive) with IGROV-1. In addition, the GI50 in the assay on KM12 was 58.1 µM (inactive); in the assay with UACC-62 it was 42.1 µM (inactive).

As to `CCOC(=O)C1=C(C)N(CC(C)C)C2(O)C(OC)CC(=O)C3C(=O)N(c4ccccc4)C(=O)C132` (stereo not given), the GI50 in the assay with Malme-3M was 31.5 µM (inactive); in the assay with SNB-19, 42.4 µM (inactive); in the assay on SF-295, 52.4 µM (inactive); in the assay with EKVX, > 100 µM (inactive); in the assay on BT-549, 40.4 µM (inactive); in the assay on NCI-H226, 26.1 µM (inactive). The GI50 in the assay on ACHN is 24.9 µM (inactive); in the assay with M14, 38.3 µM (inactive); in the assay on HT-29, 20.7 µM (inactive); with MCF7, 35.5 µM (inactive); with OVCAR-4, 27.7 µM (inactive); in the assay on HCT-15, 23.3 µM. Further, the GI50 in the assay with OVCAR-5 is > 100 µM (inactive); with HOP-92, 45.6 µM (inactive); in the assay with RXF 393, 20.7 µM (inactive); in the assay on SF-268, 60.1 µM (inactive); in the assay with UO-31, 20 µM (inactive); in the assay on IGROV-1 it was 20.1 µM (inactive). Moreover, the GI50 in the assay on KM12 is 25.9 µM (inactive); with UACC-62, 19.3 µM (inactive).

As to `c1ccc(CN2CCN3CCN(CC2)CCN(Cc2ccccc2)CC3)cc1`, the GI50 with Malme-3M was 2.83 µM (inactive); in the assay with SNB-19, 5.43 µM (inactive); in the assay on SF-295, 21.9 µM (inactive); in the assay on EKVX it was 8.47 µM (inactive); in the assay with BT-549, 5.16 µM (inactive); in the assay on NCI-H226 it was 4.94 µM (inactive). Besides, the GI50 in the assay with ACHN was 20.7 µM (inactive); with M14 it was 5.51 µM (inactive); in the assay on HT-29, 3.37 µM (inactive); in the assay on MCF7 it was 5.5 µM (inactive); with OVCAR-4, 4.04 µM (inactive); with HCT-15 it was 32.4 µM. In addition, the GI50 was 9.48 µM (inactive) with OVCAR-5; 7.06 µM (inactive) in the assay on HOP-92; 5.6 µM (inactive) in the assay on RXF 393; 11.6 µM (inactive) in the assay with SF-268; 31.7 µM (inactive) in the assay on UO-31; 7.23 µM (inactive) in the assay with IGROV-1. The GI50 was 3.33 µM (inactive) in the assay with KM12 and 4.24 µM (inactive) in the assay with UACC-62.

Take `COc1cc(C2c3cc4c(cc3[C@@H](Nc3ccc(N)cc3)C3COC(=O)[C@H]23)OCO4)cc(OC)c1O` (stereo not given in full): the GI50 is 2.13 µM (inactive) in the assay on Malme-3M; 0.805 µM (active) in the assay with SNB-19; 0.403 µM (active) with SF-295; 3.64 µM (inactive) in the assay on EKVX; 2.5 µM (inactive) in the assay with BT-549; 1.19 µM (inactive) in the assay on NCI-H226. Further, the GI50 is 1.25 µM (inactive) with ACHN; 1.31 µM (inactive) in the assay with M14; 3.64 µM (inactive) in the assay with HT-29; 0.0451 µM (active) with MCF7; 24.5 µM (inactive) in the assay with OVCAR-4; 2.21 µM in the assay on HCT-15. Moreover, the GI50 is 4.08 µM (inactive) with OVCAR-5; 0.948 µM (active) in the assay with HOP-92; 3.91 µM (inactive) in the assay on RXF 393; 1.63 µM (inactive) with SF-268; 1.34 µM (inactive) in the assay with UO-31; 3.35 µM (inactive) in the assay on IGROV-1. Further, the GI50 in the assay with KM12 was 3.43 µM (inactive); in the assay with UACC-62, 1.15 µM (inactive).
